Source: US7482342B2, “Indazolecarboxamide derivatives, preparation and use thereof as CDK1, CDK2 and CDK4 inhibitors” (sanofi-aventis, priority 2002, dated 2009)

conditions: not given

Structure (SMILES)	melting point [°C]
CCOC(=O)c1cccc(NC(=O)c2n[nH]c3ccccc23)c1	187 to 188
O=C(Nc1ccncc1)c1n[nH]c2ccc([N+](=O)[O-])cc12	> 260
O=C(Nc1ccncc1)c1n[nH]c2ccc(I)cc12	> 260

Second part, the compound after the results:

melting point [°C]	Structure (SMILES)
154 to 155	O=C(NCCCn1ccnc1)c1n[nH]c2ccccc12
> 250	O=C(O)c1cccc(NC(=O)c2n[nH]c3ccccc23)c1
218	O=C(Nc1ccc(Nc2ccccc2)cc1)c1n[nH]c2ccccc12 [Compound No. 4, N-(4-Phenylaminophenyl)-1H-indazole-3-carboxamide]

conditions: prior art; cited from earlier work

Structure (SMILES)	pharmacological activity
Cc1ccc(CNC(=O)c2n[nH]c3ccccc23)cc1 [N-(4-Methylbenzyl)-1H-indazole-3-carboxamide]	no pharmacological activity
